Where two headings read alike, the source gives them in different places.
Legend:
[1] = system: TNF-α secreted by synoviocyte; experiment: Content of TNF-α in culture supernatant of synoviocyte of RA model rats given test compound; format: in vivo; conditions: rat RA model, dose 30 mg/kg.2d; normal control 0.38 ± 0.027, NaCl 0.74 ± 0.098; 30 mg/kg
Summary of the method: (§1)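 Rat RA model: compounds given at 30 mg/kg.2d, with normal control and NaCl groups. Synoviocyte culture supernatants assayed for secreted TNF-α and PGE2 by one referenced method, IL-1β by another.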

[2] = system: IL-1β secreted by synoviocyte; experiment: Content of IL-1β in culture supernatant of synoviocyte of RA model rats given test compound; format: in vivo; conditions: rat RA model, dose 30 mg/kg.2d; normal control 0.16 ± 0.034, NaCl 0.49 ± 0.136; 30 mg/kg
Summary of the method: as §1

[3] = system: PGE2 secreted by synoviocyte; experiment: Content of PGE2 in culture supernatant of synoviocyte of RA model rats given test compound; format: in vivo; conditions: rat RA model, dose 30 mg/kg.2d; normal control 8.34 ± 1.29, NaCl 32.44 ± 10.32; 30 mg/kg
Summary of the method: as §1

cancer stem cells = experiment: Survival rate of cancer stem cells after test compound is added (flow cytometry, Annexin V-FITC/PI, clinical specimen); format: cell-based, patient; conditions: Homo sapiens, 18 h
Summary of the method: (§2)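 Patient tumour or leukaemia cells, identified by cancer-specific stem-cell markers (CD34+/CD38+ for AML), are treated with compound for 18 hours in serum-free IMDM. Apoptosis is then measured as Annexin V-FITC/PI staining by flow cytometry.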

cancer cells = experiment: Survival rate of cancer cells after test compound is added (flow cytometry, Annexin V-FITC/PI, clinical specimen); format: cell-based, patient; conditions: Homo sapiens, 18 h, read-out: Survival rate (%) All cells (Stem cells and ordinary cells)
Summary of the method: as §2

[4] = Head and neck squamous cell carcinomas

CC1=C2CC[C@@](C)(O)[C@@H]2[C@H]2OC(=O)[C@@H](CN(C)C)[C@@H]2CC1 [Compound 23]
Content of TNF-α in culture supernatant of synoviocyte (x ± s) [1]: 0.63 ± 0.063 ng/mL | Content of IL-1β in culture supernatant of synoviocyte (x ± s) [2]: 0.36 ± 0.065 ng/mL | Content of PGE2 in culture supernatant of synoviocyte (x ± s) [3]: 21.71 ± 2.32 ng/mL | viability at 10 µM (cancer stem cells; AML): 85% | viability at 20 µM (cancer stem cells; AML): 72% | viability at 10 µM (cancer stem cells; Brain glioma): 84% | viability at 20 µM (cancer stem cells; Brain glioma): 76% | viability at 10 µM (cancer stem cells; Brain tumor): 85% | viability at 20 µM (cancer stem cells; Brain tumor): 73% | viability at 10 µM (cancer stem cells; Breast cancer): 84% | viability at 20 µM (cancer stem cells; Breast cancer): 74% | viability at 10 µM (cancer stem cells; CLL): 86% | viability at 20 µM (cancer stem cells; CLL): 74% | viability at 10 µM (cancer stem cells; CML): 87% | viability at 20 µM (cancer stem cells; CML): 71% | viability at 10 µM (cancer stem cells; Children hepatoblastoma): 85% | viability at 20 µM (cancer stem cells; Children hepatoblastoma): 79% | viability at 10 µM (cancer stem cells; Colon adenocarcinoma): 88% | viability at 20 µM (cancer stem cells; Colon adenocarcinoma): 81% | viability at 10 µM (cancer stem cells; Colorectal cancer): 79% | viability at 20 µM (cancer stem cells; Colorectal cancer): 72% | viability at 10 µM (cancer stem cells; Gastric cancer): 82% | viability at 20 µM (cancer stem cells; Gastric cancer): 77% | viability at 10 µM (cancer stem cells; Gastrointestinal tumor): 91% | viability at 20 µM (cancer stem cells; Gastrointestinal tumor): 82% | viability at 10 µM (cancer stem cells; Glioma): 87% | viability at 20 µM (cancer stem cells; Glioma): 76% | viability at 10 µM (cancer stem cells; [4]): 84% | viability at 20 µM (cancer stem cells; [4]): 78% | viability at 10 µM (cancer stem cells; Laryngeal cancer): 79% | viability at 20 µM (cancer stem cells; Laryngeal cancer): 73% | viability at 10 µM (cancer stem cells; Liver cancer): 82% | viability at 20 µM (cancer stem cells; Liver cancer): 79% | viability at 10 µM (cancer stem cells; Lung adenocarcinoma): 85% | viability at 20 µM (cancer stem cells; Lung adenocarcinoma): 82% | viability at 10 µM (cancer stem cells; Lung cancer): 85% | viability at 20 µM (cancer stem cells; Lung cancer): 78% | viability at 10 µM (cancer stem cells; Malignant melanoma): 82% | viability at 20 µM (cancer stem cells; Malignant melanoma): 76% | viability at 10 µM (cancer stem cells; Nasopharynx cancer): 85% | viability at 20 µM (cancer stem cells; Nasopharynx cancer): 74% | viability at 10 µM (cancer stem cells; Ovarian cancer): 87% | viability at 20 µM (cancer stem cells; Ovarian cancer): 75% | viability at 10 µM (cancer stem cells; Pancreatic cancer): 87% | viability at 20 µM (cancer stem cells; Pancreatic cancer): 77% | viability at 10 µM (cancer stem cells; Prostate cancer): 85% | viability at 20 µM (cancer stem cells; Prostate cancer): 77% | viability at 10 µM (cancer stem cells; Retinoblastoma): 82% | viability at 20 µM (cancer stem cells; Retinoblastoma): 74% | viability at 10 µM (cancer stem cells; Skin cancer): 85% | viability at 20 µM (cancer stem cells; Skin cancer): 75% | viability at 10 µM (cancer cells; AML): 92% | viability at 20 µM (cancer cells; AML): 84% | viability at 10 µM (cancer cells; Brain glioma): 88% | viability at 20 µM (cancer cells; Brain glioma): 85% | viability at 10 µM (cancer cells; Brain tumor): 89% | viability at 20 µM (cancer cells; Brain tumor): 85% | viability at 10 µM (cancer cells; Breast cancer): 89% | viability at 20 µM (cancer cells; Breast cancer): 86% | viability at 10 µM (cancer cells; CLL): 95% | viability at 20 µM (cancer cells; CLL): 85% | viability at 10 µM (cancer cells; CML): 91% | viability at 20 µM (cancer cells; CML): 79% | viability at 10 µM (cancer cells; Children hepatoblastoma): 93% | viability at 20 µM (cancer cells; Children hepatoblastoma): 86% | viability at 10 µM (cancer cells; Colon adenocarcinoma): 91% | viability at 20 µM (cancer cells; Colon adenocarcinoma): 89% | viability at 10 µM (cancer cells; Colorectal cancer): 88% | viability at 20 µM (cancer cells; Colorectal cancer): 81% | viability at 10 µM (cancer cells; Gastric cancer): 86% | viability at 20 µM (cancer cells; Gastric cancer): 84% | viability at 10 µM (cancer cells; Gastrointestinal tumor): 94% | viability at 20 µM (cancer cells; Gastrointestinal tumor): 88% | viability at 10 µM (cancer cells; Glioma): 94% | viability at 20 µM (cancer cells; Glioma): 87% | viability at 10 µM (cancer cells; [4]): 91% | viability at 20 µM (cancer cells; [4]): 88% | viability at 10 µM (cancer cells; Laryngeal cancer): 88% | viability at 20 µM (cancer cells; Laryngeal cancer): 82% | viability at 10 µM (cancer cells; Liver cancer): 88% | viability at 20 µM (cancer cells; Liver cancer): 87% | viability at 10 µM (cancer cells; Lung adenocarcinoma): 87% | viability at 20 µM (cancer cells; Lung adenocarcinoma): 87% | viability at 10 µM (cancer cells; Lung cancer): 88% | viability at 20 µM (cancer cells; Lung cancer): 84% | viability at 10 µM (cancer cells; Malignant melanoma): 89% | viability at 20 µM (cancer cells; Malignant melanoma): 86% | viability at 10 µM (cancer cells; Nasopharynx cancer): 94% | viability at 20 µM (cancer cells; Nasopharynx cancer): 81% | viability at 10 µM (cancer cells; Ovarian cancer): 91% | viability at 20 µM (cancer cells; Ovarian cancer): 84% | viability at 10 µM (cancer cells; Pancreatic cancer): 90% | viability at 20 µM (cancer cells; Pancreatic cancer): 86% | viability at 10 µM (cancer cells; Prostate cancer): 92% | viability at 20 µM (cancer cells; Prostate cancer): 89% | viability at 10 µM (cancer cells; Retinoblastoma): 91% | viability at 20 µM (cancer cells; Retinoblastoma): 85% | viability at 10 µM (cancer cells; Skin cancer): 95% | viability at 20 µM (cancer cells; Skin cancer): 87%
